Assay results published in the kinase profiling compilation of Christmann-Franck et al. (2016).
Values joined by “and” are separate entries in the source; they are usually repeats but may differ in a detail not shown here. Equal entries are not always repeated.

How the values were obtained:
Assay in all cases: radiometric filter-binding kinase assay, Kinase HotSpot
Conditions in all cases: compound 0.5 µM; ATP 10 µM
[1] = molecular target: ACVR1B (human) (UniProt P36896)
[2] = molecular target: ADRBK2 (human) (UniProt P35626)
[3] = molecular target: AKT3 (human) (UniProt Q9Y243)
[4] = molecular target: AXL (human) (UniProt P30530)
[5] = molecular target: BMX (human) (UniProt P51813)
[6] = molecular target: BRSK1 (human) (UniProt Q8TDC3)
[7] = molecular target: CAMKK1 (human) (UniProt Q8N5S9)
[8] = molecular target: CDK1 CCNB1 (human) (UniProt P06493+P14635)
[9] = molecular target: CDK5 CDK5R1 p25 (human) (UniProt Q00535+Q15078)
[10] = molecular target: DAPK3 (human) (UniProt O43293)
[11] = molecular target: DMPK (human) (UniProt Q09013)
[12] = molecular target: DYRK4 (human) (UniProt Q9NR20)
[13] = molecular target: EPHA4 (human) (UniProt P54764)
[14] = molecular target: EPHB1 (human) (UniProt P54762)
[15] = molecular target: EPHB2 (human) (UniProt P29323)
[16] = molecular target: FLT3 (human) (UniProt P36888)
[17] = molecular target: GSG2 (human) (UniProt Q8TF76)
[18] = molecular target: INSR (human) (UniProt P06213)
[19] = molecular target: LCK (human) (UniProt P06239)
[20] = molecular target: LIMK1 (human) (UniProt P53667)
[21] = molecular target: LRRK2 (human) (UniProt Q5S007)
[22] = molecular target: LYN (human) (UniProt P07948)
[23] = molecular target: MAP2K1 (human) (UniProt Q02750)
[24] = molecular target: MAP2K2 (human) (UniProt P36507)
[25] = molecular target: MAP3K9 (human) (UniProt P80192)
[26] = molecular target: MAPK13 (human) (UniProt O15264)
[27] = molecular target: MAPKAPK3 (human) (UniProt Q16644)
[28] = molecular target: MARK3 (human) (UniProt P27448)
[29] = molecular target: MYLK2 (human) (UniProt Q9H1R3)
[30] = molecular target: NLK (human) (UniProt Q9UBE8)
[31] = molecular target: PAK7 (human) (UniProt Q9P286)
[32] = molecular target: PBK (human) (UniProt Q96KB5)
[33] = molecular target: PHKG2 (human) (UniProt P15735)
[34] = molecular target: PIM3 (human) (UniProt Q86V86)
[35] = molecular target: PRKD1 (human) (UniProt Q15139)
[36] = molecular target: PRKD3 (human) (UniProt O94806)
[37] = molecular target: RPS6KA3 KD1 KD2 (human) (UniProt P51812)
[38] = molecular target: RPS6KA5 KD2 (human) (UniProt O75582)
[39] = molecular target: STK24 (human) (UniProt Q9Y6E0)
[40] = molecular target: ULK2 (human) (UniProt Q8IYT8)
[41] = molecular target: YES1 (human) (UniProt P07947)
[42] = molecular target: CSF1R (human) (UniProt P07333)

Sequence of FLT3 (human) (P36888 whole entry, looked up): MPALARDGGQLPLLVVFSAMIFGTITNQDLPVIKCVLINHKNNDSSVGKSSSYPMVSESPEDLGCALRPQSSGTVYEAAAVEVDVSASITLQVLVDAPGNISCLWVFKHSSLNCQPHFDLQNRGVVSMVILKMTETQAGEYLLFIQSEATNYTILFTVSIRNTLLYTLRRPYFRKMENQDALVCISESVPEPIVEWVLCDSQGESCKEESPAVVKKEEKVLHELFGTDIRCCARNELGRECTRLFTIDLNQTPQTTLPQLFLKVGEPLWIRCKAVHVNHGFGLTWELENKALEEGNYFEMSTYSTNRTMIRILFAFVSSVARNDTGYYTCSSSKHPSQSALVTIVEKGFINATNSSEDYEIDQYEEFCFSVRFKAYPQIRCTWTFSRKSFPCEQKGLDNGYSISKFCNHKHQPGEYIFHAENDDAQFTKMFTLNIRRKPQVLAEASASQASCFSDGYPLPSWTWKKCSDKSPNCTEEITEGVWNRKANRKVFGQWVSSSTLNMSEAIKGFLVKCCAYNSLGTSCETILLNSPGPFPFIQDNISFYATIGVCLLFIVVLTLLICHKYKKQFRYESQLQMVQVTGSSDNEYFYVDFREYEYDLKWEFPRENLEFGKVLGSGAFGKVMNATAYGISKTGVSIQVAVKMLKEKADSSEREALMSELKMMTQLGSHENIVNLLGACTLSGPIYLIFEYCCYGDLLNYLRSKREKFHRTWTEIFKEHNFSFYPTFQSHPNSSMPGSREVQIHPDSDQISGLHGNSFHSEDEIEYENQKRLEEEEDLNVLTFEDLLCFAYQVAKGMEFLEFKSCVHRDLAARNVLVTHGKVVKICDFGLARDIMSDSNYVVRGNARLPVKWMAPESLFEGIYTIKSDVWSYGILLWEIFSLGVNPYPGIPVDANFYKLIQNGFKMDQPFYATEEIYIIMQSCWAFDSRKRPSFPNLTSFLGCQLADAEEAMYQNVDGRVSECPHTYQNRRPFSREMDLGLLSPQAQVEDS
Sequence of RPS6KA5 KD2 (human) (O75582 whole entry, looked up): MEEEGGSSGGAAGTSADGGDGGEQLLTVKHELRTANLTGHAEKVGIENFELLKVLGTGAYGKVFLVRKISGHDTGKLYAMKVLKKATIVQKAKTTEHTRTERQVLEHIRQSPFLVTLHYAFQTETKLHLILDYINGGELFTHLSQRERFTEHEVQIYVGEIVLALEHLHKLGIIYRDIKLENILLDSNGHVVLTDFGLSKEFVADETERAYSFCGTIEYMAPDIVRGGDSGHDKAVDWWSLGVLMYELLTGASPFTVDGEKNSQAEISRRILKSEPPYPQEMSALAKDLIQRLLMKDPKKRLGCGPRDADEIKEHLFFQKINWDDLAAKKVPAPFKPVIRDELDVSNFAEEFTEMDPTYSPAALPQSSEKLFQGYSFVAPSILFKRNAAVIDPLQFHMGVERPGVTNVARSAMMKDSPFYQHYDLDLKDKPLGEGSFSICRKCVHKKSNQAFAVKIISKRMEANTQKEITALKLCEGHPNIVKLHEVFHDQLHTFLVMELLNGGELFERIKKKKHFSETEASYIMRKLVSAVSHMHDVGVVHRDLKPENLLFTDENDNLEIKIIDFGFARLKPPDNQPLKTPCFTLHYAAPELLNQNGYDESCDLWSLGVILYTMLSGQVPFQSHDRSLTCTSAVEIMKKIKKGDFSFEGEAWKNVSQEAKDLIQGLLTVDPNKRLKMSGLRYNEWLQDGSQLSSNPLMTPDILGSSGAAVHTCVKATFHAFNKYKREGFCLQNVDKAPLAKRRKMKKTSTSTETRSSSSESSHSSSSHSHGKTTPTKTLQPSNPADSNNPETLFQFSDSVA
Sequence of INSR (human) (P06213 whole entry, looked up): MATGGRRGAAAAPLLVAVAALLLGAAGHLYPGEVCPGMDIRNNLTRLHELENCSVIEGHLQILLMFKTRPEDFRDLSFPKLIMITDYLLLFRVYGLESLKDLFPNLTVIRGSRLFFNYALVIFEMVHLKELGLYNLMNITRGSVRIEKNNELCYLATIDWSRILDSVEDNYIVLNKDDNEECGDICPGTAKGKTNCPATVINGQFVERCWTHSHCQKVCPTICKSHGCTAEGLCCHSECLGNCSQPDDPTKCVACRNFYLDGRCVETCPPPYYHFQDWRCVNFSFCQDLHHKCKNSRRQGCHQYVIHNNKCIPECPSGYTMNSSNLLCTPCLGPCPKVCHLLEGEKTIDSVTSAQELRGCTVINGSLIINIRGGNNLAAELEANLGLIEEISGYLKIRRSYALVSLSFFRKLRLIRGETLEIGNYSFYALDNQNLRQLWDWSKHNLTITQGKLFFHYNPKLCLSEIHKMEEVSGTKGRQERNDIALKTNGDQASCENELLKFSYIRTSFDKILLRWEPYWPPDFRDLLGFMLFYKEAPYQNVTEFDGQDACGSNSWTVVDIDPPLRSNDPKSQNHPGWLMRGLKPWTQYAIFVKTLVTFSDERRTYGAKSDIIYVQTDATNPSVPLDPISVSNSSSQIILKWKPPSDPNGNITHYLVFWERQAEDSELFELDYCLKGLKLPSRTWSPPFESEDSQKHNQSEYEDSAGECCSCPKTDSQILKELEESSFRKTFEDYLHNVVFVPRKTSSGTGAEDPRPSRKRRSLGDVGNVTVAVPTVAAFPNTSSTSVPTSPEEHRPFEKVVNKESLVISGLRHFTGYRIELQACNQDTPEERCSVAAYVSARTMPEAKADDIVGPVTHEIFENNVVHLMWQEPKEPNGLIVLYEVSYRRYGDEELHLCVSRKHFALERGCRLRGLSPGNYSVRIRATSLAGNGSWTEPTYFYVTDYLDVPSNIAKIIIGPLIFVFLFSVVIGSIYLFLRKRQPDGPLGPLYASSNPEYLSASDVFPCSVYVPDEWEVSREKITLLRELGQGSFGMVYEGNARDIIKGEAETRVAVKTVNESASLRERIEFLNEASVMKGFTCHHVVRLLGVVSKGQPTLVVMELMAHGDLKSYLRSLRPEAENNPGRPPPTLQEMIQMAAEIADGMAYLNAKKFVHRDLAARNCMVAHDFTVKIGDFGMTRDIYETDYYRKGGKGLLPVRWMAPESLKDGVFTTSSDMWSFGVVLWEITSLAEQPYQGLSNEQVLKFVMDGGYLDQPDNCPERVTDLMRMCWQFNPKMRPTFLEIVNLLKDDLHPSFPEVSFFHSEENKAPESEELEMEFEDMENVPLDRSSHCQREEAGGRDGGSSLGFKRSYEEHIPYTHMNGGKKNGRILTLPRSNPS
Sequence of PRKD3 (human) (O94806 whole entry, looked up): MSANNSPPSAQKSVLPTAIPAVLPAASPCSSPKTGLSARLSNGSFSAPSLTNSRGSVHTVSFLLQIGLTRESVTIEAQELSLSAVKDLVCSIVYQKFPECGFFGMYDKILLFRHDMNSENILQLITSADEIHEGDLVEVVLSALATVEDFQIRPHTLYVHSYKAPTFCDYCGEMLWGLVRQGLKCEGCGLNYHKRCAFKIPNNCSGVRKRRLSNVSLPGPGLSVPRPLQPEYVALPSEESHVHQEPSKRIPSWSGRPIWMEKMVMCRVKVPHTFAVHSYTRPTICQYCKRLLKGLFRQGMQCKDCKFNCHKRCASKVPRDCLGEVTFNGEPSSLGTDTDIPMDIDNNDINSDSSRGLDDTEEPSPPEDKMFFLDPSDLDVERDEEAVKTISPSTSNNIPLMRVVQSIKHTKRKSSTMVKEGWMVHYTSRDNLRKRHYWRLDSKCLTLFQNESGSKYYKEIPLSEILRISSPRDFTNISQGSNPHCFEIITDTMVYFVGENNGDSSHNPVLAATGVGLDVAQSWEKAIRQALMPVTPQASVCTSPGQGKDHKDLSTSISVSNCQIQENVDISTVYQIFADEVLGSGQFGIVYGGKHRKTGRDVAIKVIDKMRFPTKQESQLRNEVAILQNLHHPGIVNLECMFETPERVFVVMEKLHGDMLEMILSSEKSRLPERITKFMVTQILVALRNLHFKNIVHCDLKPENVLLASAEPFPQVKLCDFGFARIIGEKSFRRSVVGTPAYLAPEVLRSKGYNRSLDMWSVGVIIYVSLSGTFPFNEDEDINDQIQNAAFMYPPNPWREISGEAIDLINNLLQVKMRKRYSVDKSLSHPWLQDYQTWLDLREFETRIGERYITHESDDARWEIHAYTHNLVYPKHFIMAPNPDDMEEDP
Sequence of YES1 (human) (P07947 whole entry, looked up): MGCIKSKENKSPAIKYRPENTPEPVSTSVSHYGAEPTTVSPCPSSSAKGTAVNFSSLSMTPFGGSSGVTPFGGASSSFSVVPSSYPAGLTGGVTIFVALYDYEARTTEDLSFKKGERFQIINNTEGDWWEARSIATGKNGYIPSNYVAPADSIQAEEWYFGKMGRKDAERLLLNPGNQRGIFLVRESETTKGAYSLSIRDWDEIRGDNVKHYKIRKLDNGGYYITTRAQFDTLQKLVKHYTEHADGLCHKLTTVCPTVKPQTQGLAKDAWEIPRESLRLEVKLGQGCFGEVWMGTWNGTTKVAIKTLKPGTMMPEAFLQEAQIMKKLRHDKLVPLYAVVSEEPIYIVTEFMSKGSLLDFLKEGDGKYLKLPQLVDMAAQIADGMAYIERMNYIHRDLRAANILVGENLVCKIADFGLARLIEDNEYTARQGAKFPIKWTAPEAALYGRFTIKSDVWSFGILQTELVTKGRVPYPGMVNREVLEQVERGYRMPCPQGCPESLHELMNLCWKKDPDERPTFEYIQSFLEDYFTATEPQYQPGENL
Sequence of PHKG2 (human) (P15735 whole entry, looked up): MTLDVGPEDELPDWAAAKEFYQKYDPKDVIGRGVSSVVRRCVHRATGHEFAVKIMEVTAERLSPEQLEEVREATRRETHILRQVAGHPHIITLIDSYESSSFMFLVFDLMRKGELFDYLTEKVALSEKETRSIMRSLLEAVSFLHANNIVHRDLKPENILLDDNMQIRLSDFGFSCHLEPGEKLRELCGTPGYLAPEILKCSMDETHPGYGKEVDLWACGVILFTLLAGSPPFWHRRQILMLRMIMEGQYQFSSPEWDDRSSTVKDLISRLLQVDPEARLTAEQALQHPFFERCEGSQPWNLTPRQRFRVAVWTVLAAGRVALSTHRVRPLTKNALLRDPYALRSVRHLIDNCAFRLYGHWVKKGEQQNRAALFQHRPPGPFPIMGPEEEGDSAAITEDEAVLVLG

With `Clc1ccc(Nc2nnc(Cc3ccncc3)c3ccccc23)cc1` the residual activity [1] was 108%, the residual activity [2] was 92.9% and the residual activity [3] was 89.9%. It also gave a residual activity [4] of 98.3%, a residual activity [5] of 106% and a residual activity [6] of 93.1%. The residual activity [7] was 97.2%, the residual activity [8] was 104% and the residual activity [9] was 91.3%. The residual activity [10] was 107%, the residual activity [11] was 102% and the residual activity [12] was 97.5%. The residual activity [13] was 102%, the residual activity [14] was 107% and the residual activity [15] was 107%. For the same molecule, the residual activity [16] was 92%, the residual activity [17] was 70% and the residual activity [18] was 99.9%. For the same molecule, the residual activity [19] was 87%, the residual activity [20] was 98.9% and the residual activity [21] was 74.8%. For the same molecule, the residual activity [22] was 110% and 91.8%, the residual activity [23] was 100% and the residual activity [24] was 100%. It also gave a residual activity [25] of 113%, a residual activity [26] of 88.9% and a residual activity [27] of 98.9%. It also gave a residual activity [28] of 102%, a residual activity [29] of 103% and a residual activity [30] of 99.3%. For the same molecule, the residual activity [31] was 97.1%, the residual activity [32] was 108% and the residual activity [33] was 91.8%. It also gave a residual activity [34] of 98.9%, a residual activity [35] of 101% and a residual activity [36] of 94.7%. It also gave a residual activity [37] of 101%, a residual activity [38] of 85.5% and a residual activity [39] of 98.7%. It also gave a residual activity [40] of 99.9% and a residual activity [41] of 93%.

For `CS(=O)c1ccc(-c2nc(-c3ccc(F)cc3)c(-c3ccncc3)[nH]2)cc1` (configuration not stated), the residual activity [1] was 127%, the residual activity [2] was 98.2% and the residual activity [3] was 102%. For the same molecule, the residual activity [4] was 101%, the residual activity [5] was 94.4% and the residual activity [6] was 97.9%. It also gave a residual activity [7] of 125%, a residual activity [8] of 99.1% and a residual activity [9] of 90.6%. For the same molecule, the residual activity [42] was 95.5%, the residual activity [10] was 95.5% and the residual activity [11] was 103%. For the same molecule, the residual activity [12] was 99.2%, the residual activity [13] was 95.6% and the residual activity [14] was 93%. It also gave a residual activity [15] of 108%, a residual activity [16] of 91.5% and a residual activity [17] of 88.3%. For the same molecule, the residual activity [18] was 88.9%, the residual activity [19] was 95% and the residual activity [20] was 91.3%. For the same molecule, the residual activity [21] was 100%, the residual activity [22] was 91.8% and 99.1% and the residual activity [23] was 94.8%. The residual activity [24] was 99.9%, the residual activity [25] was 95% and the residual activity [26] was 106%. It also gave a residual activity [28] of 101%, a residual activity [29] of 99.9% and a residual activity [30] of 53.8%. It also gave a residual activity [31] of 104%, a residual activity [32] of 102% and a residual activity [33] of 102%. It also gave a residual activity [34] of 98.1%, a residual activity [36] of 84.1% and a residual activity [37] of 95.7%. The residual activity [38] was 103%, the residual activity [39] was 99% and the residual activity [40] was 83.5%. The residual activity [41] was 92.6%.

Work on `O=c1cc(N2CCNCC2)oc2c(-c3ccccc3)cccc12` yielded a residual activity [1] of 105%, a residual activity [2] of 97.4% and a residual activity [3] of 102%. For the same molecule, the residual activity [4] was 117%, the residual activity [5] was 98% and the residual activity [6] was 95.3%. It also gave a residual activity [7] of 105%, a residual activity [8] of 106% and a residual activity [9] of 94.5%. The residual activity [42] was 108%, the residual activity [10] was 133% and the residual activity [11] was 96.2%. The residual activity [12] was 94.7%, the residual activity [13] was 100% and the residual activity [14] was 94.8%. The residual activity [15] was 97.3%, the residual activity [16] was 108% and the residual activity [17] was 94.3%. For the same molecule, the residual activity [18] was 101%, the residual activity [19] was 104% and the residual activity [20] was 108%. The residual activity [21] was 101%, the residual activity [22] was 101% and 95.8% and the residual activity [23] was 103%. For the same molecule, the residual activity [24] was 94%, the residual activity [25] was 101% and the residual activity [26] was 104%. The residual activity [28] was 88.8%, the residual activity [29] was 97.3% and the residual activity [30] was 98.8%. The residual activity [31] was 104%, the residual activity [32] was 124% and the residual activity [33] was 96.9%. The residual activity [34] was 93.5%, the residual activity [35] was 91.9% and the residual activity [36] was 88.6%. It also gave a residual activity [37] of 101%, a residual activity [38] of 99.1% and a residual activity [39] of 89.6%. For the same molecule, the residual activity [40] was 108% and the residual activity [41] was 96.4%.
